Assay results published in patent US20240239786A1, “COMPOSITIONS AND METHODS FOR THE TREATMENT AND PREVENTION OF CANCER” (Yale University, priority 2021, published 2024).

How the values were obtained:
Assay type in all cases: cell-based
[1] = tested on: PD-L1; assay: PD-L1 level in BRCA-wild type PEO4 cells
Excerpt: FIG. 21A depicts representative effects of DB4 and/or olaparib on BRCA-wild type PEO4 cells after 24, 48, and 72 hr. FIG. 21B depicts representative effects of DB4 and/or olaparib on the level of DSBs in BRCA-wild type PEO4 cells. FIG. 21C depicts representative effects of DB4 and/or olaparib on the level of PD-L1 protein in BRCA-wild type PEO4 cells.
FIG. 22 depicts representative effects of DB4 and/or olaparib on PD-L1-positive populations of BRCA-mutated PEO1 and BRCA-wild type PEO4 cells. DB4 and/or olaparib increased the PD-L1-positive population of BRCA-wild type PEO4 cells in the presence of IFNγ.

[2] = tested on: T cells; assay: PBMC T cell co-culture with PEO4 cells activated by CD3-CD28 beads; conditions: PBMCs co-cultured with treated PEO4 cells
Excerpt: FIG. 23 depicts representative effects of DB4 or triapine on peripheral blood mononuclear cells (PBMCs) containing T cells that were co-cultured with BRCA-mutated PEO1 and BRCA-wild type PEO4 cells and activated by CD3-CD28 beads. PEO1 cells suppressed CD8-positive activated T cells.
FIG. 24 depicts representative effects of DB4 or triapine on peripheral blood mononuclear cells (PBMCs) containing T cells that were co-cultured with BRCA-mutated PEO1 and BRCA-wild type PEO4 cells and activated by CD3-CD28 beads. PEO1 cells increased PD1 and LAG3-positive exhausted T cells.
Further experiments were conducted using PBMCs containing T cells that were co-cultured with PEO1 or PEO4 cells and activated by CD3-CD28 beads (FIG. 23). […] Both DB4 and triapine are RNR inhibitors. As such, although not bound by any particular theory, it was hypothesized that DB4 turned BRCA-wild type EOC into immunogenic “hot” tumors. DB4 promoted an increase in tumor neoantigens and the recruitment of tumor infiltrating lymphocytes (TILs) to tumor stroma, which enabled an effective antitumor response elicited by immune checkpoint inhibitors.

[3] = tested on: Hs 832(C).T cells; assay: Caspase 3/7 assay, Hs 832(C).T; conditions: benign ovarian cyst fibroblast cells Hs 832(C).T
Method: Cells were pre-treated with 30 μM DB4 for 1 hr and then treated with various concentrations of olaparib for 72 hr. Cell survival was determined by MTS cytotoxicity assay. Data are means±SD (N=3-4). […] EOB calculation was used to quantify the synergy of the combination of DB4 and various concentrations of olaparib in PEO1 or PEO4 cells as shown in FIG. 8A. EOB>0, synergism; EOB=0, additivity; EOB<0, antagonism. […] Cells were pre-treated with 30 μM DB4-F for 1 hr and then treated with various concentrations of olaparib for 72 hr. Cell survival was determined by MTS cytotoxicity assay. Data are means±SD (N=3-4). […] EOB calculation was used to quantify the synergy of the combination of DB4-F and various concentrations of olaparib in PEO1 or PEO4 cells as shown in FIG. 8B. […] Cell survival was determined by MTS cytotoxicity assay. […] Caspase 3/7 activity was expressed as RLU per μg/μl protein. […] Caspase 3/7 activity was expressed as RLU per μg/μl protein. […] Cells were treated and caspase 3/7 activity was measured as described in FIG. 8G and FIG. 8H.
Furthermore, the effects of DB4 on olaparib-induced apoptosis at 24 hr were evaluated. […]
The assay was performed as described previously (Lin Z P et al., 2018, PLOS One, 13:e0207399). […] Total protein concentration of cell lysates was determined as described above. Caspase 3/7 activity was expressed as luminescence units (RLU) per μg/μL protein for each sample.

Structure (SMILES) | PD-L1 protein level ([1]; BRCA-wild type EOC cells) | PD-L1-positive population ([1]; PEO4 cells in the presence of IFNγ) | T cell activation and exhaustion in co-culture with drug-treated PEO4 cells [2] | effect on apoptotic effects of olaparib (caspase 3/7) [3]
C=CCn1c(SCc2cccc(Cl)c2)nnc1C1CCN(Cc2nc3ccccc3s2)CC1 [DB4, 2-[(4-{4-allyl-5-[(3-chlorobenzyl)thio]-4H-1,2,4-triazol-3-yl}-1-piperidinyl)methyl]-1,3-benzothiazole] | up-regulation of PD-L1 protein | significantly increased | suppressing T cell activation and enhancing T cell exhaustion | did not enhance the apoptotic effects of olaparib
NC(=S)NN=Cc1ncccc1N [triapine, 3-aminopyridine-2-carboxaldehyde-thiosemicarbazone, reference compound] | – | – | suppressing T cell activation and enhancing T cell exhaustion | –
